Source: patent US8426437B2, “Pyrroloquinoline derivatives and their use as protein kinases inhibitors” (Pierre Fabre Medicament, priority 2005, dated 2013)
One block for each compound: values may come before it.

How the values were obtained:
[1] = molecular target: T1, PIM-1 (h) (Homo sapiens, UniProt P11309); assay: Upstate kinase panel: PIM-1; type: biochemical; settings: compound 20 μM, 10 μM ATP, read-out: % inhibition at 20 μMol
T1 construct: purchased Upstate
Protocol: (§1) These kinases are produced by Upstate and screened according to the respective protocols indicated by the supplier (http://www.upstate.com/features/kp_protocols.asp). Examples 1, 12, 166 and 238 were tested at a concentration of 20 μM, 10 μM, 1 μM and 1 μM respectively in the presence of 10 μM of ATP for examples 1 and 12 and at the concentrations of ATP shown in parentheses for examples 166 and 238. The results shown in Table VII correspond to percentage inhibition of the kinase tested in the presence of the compound, relative to a control effected without the compound.

[2] = molecular target: T2, TrkA (h) (Homo sapiens, UniProt P04629); assay: Upstate kinase panel: TrkA; type: biochemical; settings: compound 20 μM, 10 μM ATP, read-out: % inhibition at 20 μMol
T2 construct: purchased Upstate
T2 sequence (P04629 33-796): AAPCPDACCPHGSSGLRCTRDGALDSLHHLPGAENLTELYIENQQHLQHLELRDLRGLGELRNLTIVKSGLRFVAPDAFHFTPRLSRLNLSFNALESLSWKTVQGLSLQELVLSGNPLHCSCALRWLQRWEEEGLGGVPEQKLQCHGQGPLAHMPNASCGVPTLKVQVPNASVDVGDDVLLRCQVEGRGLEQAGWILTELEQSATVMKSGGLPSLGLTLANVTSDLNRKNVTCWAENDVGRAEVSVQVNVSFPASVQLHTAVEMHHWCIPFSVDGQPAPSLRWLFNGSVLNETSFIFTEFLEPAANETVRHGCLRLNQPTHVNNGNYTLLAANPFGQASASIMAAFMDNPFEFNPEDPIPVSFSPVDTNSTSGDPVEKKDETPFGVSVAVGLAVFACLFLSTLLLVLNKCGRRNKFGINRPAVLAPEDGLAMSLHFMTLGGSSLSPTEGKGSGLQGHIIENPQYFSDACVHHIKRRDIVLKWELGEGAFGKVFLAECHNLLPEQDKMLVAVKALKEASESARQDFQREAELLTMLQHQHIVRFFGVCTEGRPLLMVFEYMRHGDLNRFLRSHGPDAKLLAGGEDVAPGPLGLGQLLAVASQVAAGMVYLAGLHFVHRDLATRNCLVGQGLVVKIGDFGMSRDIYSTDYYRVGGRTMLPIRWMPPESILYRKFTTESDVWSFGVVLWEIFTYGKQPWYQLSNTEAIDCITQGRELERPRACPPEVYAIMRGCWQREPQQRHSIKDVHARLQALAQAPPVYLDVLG
Protocol: as §1

[3] = molecular target: T3, TrkA (Homo sapiens, UniProt P04629); assay: Inhibition of kinase TrkA (Kinase-Glo); type: biochemical; settings: TrkA 4 μg/ml, 30 μM ATP, two hours at 30° C.
T3 construct: purchased Upstate 14-571
T3 sequence (P04629 33-796): as above
How it was run: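 TrkA (4 μg/ml) was incubated with 1 mg/ml poly-EY and 30 μM ATP in MOPS pH 7 buffer with Mg acetate, DTT and vanadate, compounds at 10 nM–30 μM final, for 2 h at 30 °C. Remaining ATP was quantified by Kinase-Glo luminescence.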

[4] = molecular target: T4, TrkB (Homo sapiens, UniProt Q16620); assay: Inhibition of kinase TrkB (Kinase-Glo); type: biochemical; settings: TrkB 4 μg/ml, 40 μM ATP, two hours at 30° C.
T4 construct: purchased Upstate 14-507
T4 sequence (Q16620 32-822): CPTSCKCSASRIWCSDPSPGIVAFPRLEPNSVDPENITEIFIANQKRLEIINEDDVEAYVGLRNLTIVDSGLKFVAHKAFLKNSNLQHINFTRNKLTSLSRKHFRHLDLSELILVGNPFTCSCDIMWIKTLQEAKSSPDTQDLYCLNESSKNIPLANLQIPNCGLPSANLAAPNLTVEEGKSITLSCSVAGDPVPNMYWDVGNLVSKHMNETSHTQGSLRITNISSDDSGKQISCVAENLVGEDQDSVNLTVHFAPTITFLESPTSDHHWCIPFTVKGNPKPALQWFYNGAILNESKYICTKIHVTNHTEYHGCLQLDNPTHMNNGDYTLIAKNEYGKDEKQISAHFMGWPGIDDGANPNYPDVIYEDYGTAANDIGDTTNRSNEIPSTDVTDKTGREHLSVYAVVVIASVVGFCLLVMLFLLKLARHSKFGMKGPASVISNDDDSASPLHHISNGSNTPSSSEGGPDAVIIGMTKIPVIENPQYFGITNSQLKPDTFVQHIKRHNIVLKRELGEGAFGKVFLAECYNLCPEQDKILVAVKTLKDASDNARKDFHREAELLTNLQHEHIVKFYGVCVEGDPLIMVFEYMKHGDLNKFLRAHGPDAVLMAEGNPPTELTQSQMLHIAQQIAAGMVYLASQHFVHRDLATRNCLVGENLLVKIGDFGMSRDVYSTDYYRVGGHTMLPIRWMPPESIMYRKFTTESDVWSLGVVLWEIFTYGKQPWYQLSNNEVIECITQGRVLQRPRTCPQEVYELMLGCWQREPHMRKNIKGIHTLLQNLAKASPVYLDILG
How it was run: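 TrkB at 4 μg/ml with 2.5 mg/ml poly-EY and 40 μM ATP in MOPS/NaOH pH 7 buffer with MgAc, EDTA, DTT, vanadate and glycerophosphate; compounds at final 10 nM–30 μM. After 2 h at 30°C, remaining ATP measured by Kinase-Glo luminescence.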

[5] = molecular target: T5, TrkB (h) (Homo sapiens, UniProt Q16620); assay: Upstate kinase panel: TrkB; type: biochemical; settings: compound 10 μM, 10 μM ATP, read-out: % inhibition at 10 μMol
T5 construct: purchased Upstate
T5 sequence (Q16620 32-822): as above
Protocol: as §1

[6] = molecular target: T6, FGFR1 (h) (Homo sapiens, UniProt P11362); assay: Upstate kinase panel: FGFR1; type: biochemical; settings: compound 1 μM, ATP (200), read-out: % inhibition at 1 μMol
T6 construct: purchased Upstate
T6 sequence (P11362 22-822): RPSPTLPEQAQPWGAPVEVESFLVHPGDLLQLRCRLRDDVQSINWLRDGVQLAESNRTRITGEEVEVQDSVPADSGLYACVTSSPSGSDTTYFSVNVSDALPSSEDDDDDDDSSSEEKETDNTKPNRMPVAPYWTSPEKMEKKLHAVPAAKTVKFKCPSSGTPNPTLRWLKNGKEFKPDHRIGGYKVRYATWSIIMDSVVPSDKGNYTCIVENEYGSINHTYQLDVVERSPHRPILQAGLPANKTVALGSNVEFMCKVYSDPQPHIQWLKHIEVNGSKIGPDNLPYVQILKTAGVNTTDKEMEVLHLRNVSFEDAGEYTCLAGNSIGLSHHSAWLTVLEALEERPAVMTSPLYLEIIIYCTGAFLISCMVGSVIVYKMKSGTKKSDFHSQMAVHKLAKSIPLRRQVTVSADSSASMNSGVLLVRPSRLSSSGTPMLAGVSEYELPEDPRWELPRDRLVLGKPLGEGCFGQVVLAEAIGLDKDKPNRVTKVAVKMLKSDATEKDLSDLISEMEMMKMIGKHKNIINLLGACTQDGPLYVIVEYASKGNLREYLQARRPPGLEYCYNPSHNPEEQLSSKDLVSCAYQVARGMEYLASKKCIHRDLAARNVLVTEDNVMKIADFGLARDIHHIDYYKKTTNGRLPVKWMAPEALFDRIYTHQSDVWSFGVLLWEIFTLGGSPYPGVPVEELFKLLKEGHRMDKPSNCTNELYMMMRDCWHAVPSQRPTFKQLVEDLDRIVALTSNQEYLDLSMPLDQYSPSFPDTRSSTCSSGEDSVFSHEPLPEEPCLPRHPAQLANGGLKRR
Protocol: as §1

[7] = test system: MLCK (h); assay: Upstate kinase panel: MLCK; type: biochemical, human; settings: compound 1 μM, ATP (10)
Protocol: as §1

[8] = molecular target: T7, Rsk2 (h) (Homo sapiens, UniProt P51812); assay: Upstate kinase panel: Rsk2; type: biochemical; settings: compound 1 μM, ATP (10), read-out: % inhibition at 1 μMol
T7 construct: purchased Upstate
T7 sequence (P51812 whole entry): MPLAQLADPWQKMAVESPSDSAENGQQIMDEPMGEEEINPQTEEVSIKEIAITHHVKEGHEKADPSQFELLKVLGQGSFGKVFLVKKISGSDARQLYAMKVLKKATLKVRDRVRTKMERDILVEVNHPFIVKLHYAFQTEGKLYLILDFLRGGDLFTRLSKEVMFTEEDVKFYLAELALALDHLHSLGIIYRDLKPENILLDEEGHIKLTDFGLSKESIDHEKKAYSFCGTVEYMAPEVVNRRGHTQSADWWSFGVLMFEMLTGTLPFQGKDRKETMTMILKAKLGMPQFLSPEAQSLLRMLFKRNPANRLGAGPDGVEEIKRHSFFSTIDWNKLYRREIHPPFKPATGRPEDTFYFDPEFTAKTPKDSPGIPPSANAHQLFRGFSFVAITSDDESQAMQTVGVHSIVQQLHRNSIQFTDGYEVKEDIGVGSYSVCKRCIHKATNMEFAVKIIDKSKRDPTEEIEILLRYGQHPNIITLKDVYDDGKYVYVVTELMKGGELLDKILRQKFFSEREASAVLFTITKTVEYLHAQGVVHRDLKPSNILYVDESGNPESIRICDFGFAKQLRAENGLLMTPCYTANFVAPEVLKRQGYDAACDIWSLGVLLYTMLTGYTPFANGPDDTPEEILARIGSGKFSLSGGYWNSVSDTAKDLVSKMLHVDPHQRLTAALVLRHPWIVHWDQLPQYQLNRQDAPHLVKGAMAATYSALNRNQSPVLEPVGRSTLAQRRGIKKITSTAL
Protocol: as §1

[9] = test system: U251; assay: WST test, inhibition of proliferation of U251; type: cell-based; settings: Homo sapiens, U-251, 96 h; line U251, tissue of origin CMS; four days of incubation, WST-1
Protocol: (§2) The inhibition of the proliferation of cell lines by certain compounds of the invention was tested. […] In the example, the lines used were derived from cancers of the uterus, central nervous system, colon, stomach, head and neck, lung, breast, pancreas, and kidney, as well as from lymphoma, myeloma, pleura, or from melanoma.
(§3) The WST test for measuring cell proliferation and viability (Roche Applied Science) is based on cleavage of a tetrazolium salt by the mitochondrial dehydrogenases in viable cells.
(§4) After four days of incubation of the compounds with the cell line, 14 μl of WST-1 reagent is added to each well and the plates are incubated for four hours at 37° in humid atmosphere at 5% CO2. The level of formazan formed is then determined by spectrophotometry at 450 nm whereas a reference is measured at 650 nm. A control with untreated cells is represented by six wells per plate and the group of treated cells is produced in triplicate for each of the concentrations measured.
(§5) The compounds are tested at five concentrations between 10 nM and 100 μM and two cytotoxic agents are used as controls: adriamycin and 5-fluorouracil.

[10] = test system: A172; assay: WST test, inhibition of proliferation of A172; type: cell-based; settings: Homo sapiens, A 172, 96 h; line A172, tissue of origin CMS; four days of incubation, WST-1
Protocol: as §2, §3, §4, §5

[11] = test system: MDA-231; assay: WST test, inhibition of proliferation of MDA-231; type: cell-based; settings: Homo sapiens, MDA-MB-231, 96 h; line MDA-231, tissue of origin Breast; four days of incubation, WST-1
Protocol: as §2, §3, §4, §5

[12] = test system: RAJI; assay: WST test, inhibition of proliferation of RAJI; type: cell-based; settings: Homo sapiens, 96 h; line RAJI, tissue of origin Lymphoma; four days of incubation, WST-1
Protocol: as §2, §3, §4, §5

[13] = test system: A498; assay: WST test, inhibition of proliferation of A498; type: cell-based; settings: Homo sapiens, 96 h; line A498, tissue of origin Kidney; four days of incubation, WST-1
Protocol: as §2, §3, §4, §5

[14] = test system: panel of cell lines; assay: Inhibition of the proliferation of a panel of cell lines (WST test); type: cell-based; settings: lines of Table XI, four days of incubation

T1 sequence (P11309 whole entry): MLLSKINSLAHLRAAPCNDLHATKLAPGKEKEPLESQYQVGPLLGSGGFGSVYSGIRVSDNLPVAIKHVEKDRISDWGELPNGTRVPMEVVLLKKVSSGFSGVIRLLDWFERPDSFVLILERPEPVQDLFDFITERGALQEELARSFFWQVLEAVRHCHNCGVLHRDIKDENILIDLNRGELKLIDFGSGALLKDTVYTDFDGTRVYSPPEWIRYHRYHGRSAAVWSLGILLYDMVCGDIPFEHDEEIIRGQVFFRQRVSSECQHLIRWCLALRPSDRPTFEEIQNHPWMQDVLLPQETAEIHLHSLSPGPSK

inhibition at 20 µM [1]: 92% | inhibition at 20 µM [2]: 97%
Structure (SMILES): CCOC(=O)c1c[nH]c2c(=O)[nH]c3ccccc3c12 [Compound 1, 4-Oxo-4,5-dihydro-3H-pyrrolo[2,3-c]quinoline-1-ethyl carboxylate]

IC50 [3]: 1 to 10 µM | IC50 [4]: 1 to 10 µM | inhibition at 10 µM [5]: 98%
Structure (SMILES): CCOC(=O)c1c[nH]c2c(=O)[nH]c3ccc(S(=O)(=O)Nc4ccc(F)cc4)cc3c12 [Compound 12, 8-(4-Fluorophenylsulfamoyl)-4-oxo-4,5-dihydro-3H-pyrrolo[2,3-c]quinoline-1-ethyl carboxylate]

inhibition at 1 µM [6]: 51% | % inhibition at 1 μMol [7]: 21% | inhibition at 1 µM [8]: 25% | IC50 [9]: 33 µM | IC50 [12]: 34 µM
Structure (SMILES): CCOC(=O)c1c[nH]c2c(=O)[nH]c3ccc(-c4cccc(S(C)(=O)=O)c4)cc3c12 [Compound 238, 8-(3-Methanesulfonyl-phenyl)-4-oxo-4,5-dihydro-3H-pyrrolo[2,3-c]quinoline-1-ethyl carboxylate]
IC50 [10]: 13 µM | IC50 [11]: 41 µM | IC50 [13]: 49 µM | inhibition of proliferation of cell lines (in words) [14]: inhibition of proliferation
